Here are results for 1 compound from paper PMC7069095, “A cell-permeable peptide-based PROTAC against the oncoprotein CREPT proficiently inhibits pancreatic cancer” (Theranostics, 2020).

Non-standard residues stand in square brackets, D forms with d. Residues, ends and D or L forms follow the SMILES beside them. Hyp = O=C(O)[C@@H]1C[C@@H](O)CN1; Ahx = NCCCCCC(=O)O

In this experiment the target is T1, ubiquitinated CREPT in Panc-1 cells (Homo sapiens, UniProt Q9NQG5).
T1 construct: endogenous protein level of CREPT in Panc-1, AsPc-1 and MIA-PaCa-2 cells; endogenous in cells; host or cells: Panc-1, AsPc-1, MIA PaCa-2
T1 sequence (Q9NQG5 1-326): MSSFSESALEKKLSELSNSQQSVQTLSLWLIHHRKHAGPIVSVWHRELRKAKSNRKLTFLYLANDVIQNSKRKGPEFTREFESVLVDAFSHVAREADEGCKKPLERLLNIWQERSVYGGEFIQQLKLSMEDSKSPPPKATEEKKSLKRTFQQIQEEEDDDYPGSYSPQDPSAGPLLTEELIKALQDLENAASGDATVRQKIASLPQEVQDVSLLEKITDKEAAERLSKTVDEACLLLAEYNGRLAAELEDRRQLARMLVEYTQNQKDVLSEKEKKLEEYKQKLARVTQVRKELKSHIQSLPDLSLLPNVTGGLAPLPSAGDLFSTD
Put plainly: Endogenous IP of CREPT with ubiquitin (Co-IP). In kind it is cell-based. Conditions: 10 μM peptide for 24 h. On the procedure: For exogenous immunoprecipitation assays, HEK293T cells were plated in 60 mm dishes and then transfected with the indicated plasmids. After 24 h, cells were harvested using RIPA buffer (50 mM Tris-HCl pH 8.0, 2 mM EDTA pH 8.0, 150 mM NaCl, 1% NP-40, 0.5% sodium deoxycholate, 0.1% SDS) with mixed protease inhibitors. Cell lysates were incubated with 2 μg of the indicated antibodies and 30 μL of protein A/G-Sepharose beads at 4 °C overnight. Beads were eluted five times with lysis buffer (50 mM Tris-HCl pH 7.6, 1 mM EDTA pH 8.0, 165 mM NaCl, 0.5% NP-40), and thereafter, a western blot assay was performed to analyze the association by using the indicated antibodies. Western blot was performed as previously reported. Anti-β-actin and anti-Flag antibodies were purchased from Sigma. Anti-Myc antibody was purchased from Santa Cruz Biotechnology. Antibody against CREPT was produced in the laboratory.
In addition, a Co-IP experiment was performed in Panc-1 cells treated with 10 μM PRTC, PRTC-m or PRTC-v for 24 h. […] In the absence of MG132, the level of ubiquitinated CREPT was further increased by PRTC (Figure 6C, compare lane 1 and lane 2).
Figure 6 The degradation of CREPT by PRTC is dependent on its VHL ligand. (A) Immunoblot of CREPT following 24 h incubation with different dosages of PRTC or PRTC-v in Panc-1 cells. (B) Immunoblot of CREPT exposed to 10 μM PRTC or PRTC-v for different time points in Panc-1 cells. (C) Endogenous IP experiment of CREPT with ubiquitin treated with 10 μM PTRC, PTRC-m or PTRC-v in Panc-1 cells. IP: CREPT, IB: Anti-ubiquitin.

Take `CC[C@H](C)[C@H](N)C(=O)N[C@@H](Cc1ccc(O)cc1)C(=O)N1C[C@H](O)C[C@H]1C(=O)N[C@@H](C)C(=O)N[C@@H](CC(C)C)C(=O)NCCCCCC(=O)N[C@@H](CCCCN)C(=O)N[C@@H](CC(=O)O)C(=O)N[C@H](C(=O)N[C@@H](CC(C)C)C(=O)N[C@@H](CO)C(=O)N[C@@H](CCC(=O)O)C(=O)N[C@@H](CCCCN)C(=O)N[C@@H](CCC(=O)O)C(=O)N[C@@H](CCCCN)C(=O)N[C@@H](CCCCN)C(=O)N[C@@H](CC(C)C)C(=O)N[C@@H](CCC(=O)O)C(=O)N[C@@H](CCC(=O)O)C(=O)N[C@@H](Cc1ccc(O)cc1)C(=O)N[C@@H](CCCCN)C(=O)N[C@@H](CCC(N)=O)C(=O)N[C@@H](CCCCN)C(=O)N[C@@H](CC(C)C)C(=O)N[C@@H](C)C(=O)N[C@@H](CCCNC(=N)N)C(=O)N[C@H](C(=O)N[C@@H](CCCNC(=N)N)C(=O)N[C@@H](CCCNC(=N)N)C(=O)N[C@@H](CCCNC(=N)N)C(=O)N[C@@H](CCCNC(=N)N)C(=O)N[C@@H](CCCCN)C(=O)O)C(C)C)C(C)C` [PRTC] (H-IY[Hyp]AL[Ahx]KDVLSEKEKKLEEYKQKLARVRRRRK-OH; N-terminus and C-terminus assumed): the CREPT protein level result (Co-IP experiment) was “significantly decreased”. Further, the “ubiquitinated CREPT proteins” value (IP: CREPT, IB: anti-ubiquitin) is recorded as “increased”.
